Common to all, as to experiment: Bliss excess, mean over the matrix (fraction); higher = more synergy
The subject of assay [1] is EBC-1 (Squamous Cell Lung Carcinoma). The essentials:
(§1)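 Cell lines in DMEM/F12 or RPMI with 10% FBS were plated in 1536-well plates, held 24 hours at 37°C, 5% CO2, then given two-drug dose matrices for 72 hours (DMSO typically 0.2%). Viability was read by CellTiter-Glo 2.0 luminescence and scaled as inhibition from 0 (vehicle wells) to 1 (blank wells). Combination Emax is the second-highest inhibition in the matrix; Bliss excess is observed combination effect minus expected EA + EB − EA·EB, EA and EB being single-agent effects.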

In assay [2] the test system is EMC-BAC-2 (Non-Small Cell Lung Carcinoma). In a few lines: as §1
A further assay relates to EW-13 (Ewing's Sarcoma). The essentials: as §1
Another assay concerns GOTO (Neuroblastoma). In a few lines: as §1
The subject of assay [3] is HuP-T3 (Pancreatic Carcinoma). In a few lines:
as §1

Assay [4] deals with KINGS-1 (Low Grade Glioma). In a few lines: as §1
Assay [5] has as its system KLE (Endometrial Carcinoma). The essentials: as §1
Assay [6] concerns KU-19-19 (Bladder Carcinoma). The essentials: as §1
In assay [7] the test system is KYSE-150 (Esophageal Squamous Cell Carcinoma). The essentials: as §1
The test system of assay [8] is KYSE-50 (Esophageal Squamous Cell Carcinoma). In a few lines:
as §1

Assay [9] concerns NCI-H2347 (Lung Adenocarcinoma). In a few lines: as §1
The subject of the next assay is NH-12 (Neuroblastoma). In a few lines: as §1
Assay [10] deals with OVISE (Ovarian Carcinoma). The essentials:
as §1

For assay [11], the system named is SCC-3 (B-Cell Non-Hodgkin's Lymphoma). The essentials:
as §1

As to `CN(CCO)CC[C@H](CSc1ccccc1)Nc1ccc(S(=O)(=O)NC(=O)c2ccc(N3CCC([C@@H](O)c4ccccc4-c4ccc(Cl)cc4)CC3)cc2)cc1S(=O)(=O)C(F)(F)F` [AZD4320] + CN(C)CCCOc1ccc(-c2ccc3ncc4c(c3c2)n(C2CCOCC2)c(=O)n4C)cn1 [AZD0156] (first compound max 1 µM, 7x7, partner max 1 µM), the Bliss excess in [1] was -0.0075; in [2], -0.0683; with EW-13 (Ewing's Sarcoma), -0.0303; with GOTO (Neuroblastoma), -0.0041; in assay [3], -0.0429; in assay [4] it was 0.007. Also, the Bliss excess in assay [5] is -0.0824; in assay [6], -0.0364; in assay [7], -0.0392; in assay [8], -0.0341; in assay [9], -0.0378; in the assay on NH-12 (Neuroblastoma), -0.0565. Also, the Bliss excess in assay [10] was -0.0521; in assay [11] it was 0.0226.
For the compound `Cc1cc2ncnn2cc1Nc1ncc2c(n1)n(C1CCOCC1)c(=O)n2C` [AZD7648] + C=CCn1c(=O)c2cnc(Nc3ccc(N4CCN(C)CC4)cc3)nc2n1-c1cccc(C(C)(C)O)n1 [AZD1775] (first compound max 10 µM, partner max 1 µM), the Bliss excess in assay [1] is -0.0041; in [2], 0.0058; in the assay on EW-13 (Ewing's Sarcoma), 0.0225; with GOTO (Neuroblastoma) it was -0.0421; in [3], -0.0189; in [4], -0.0041. Besides, the Bliss excess in [5] is 0.0159; in [6], -0.0201; in [7], 0.0333; in assay [8] it was 0.0011; in [9] it was -0.0279; in the assay on NH-12 (Neuroblastoma) it was 0.0005. In addition, the Bliss excess in [10] was -0.0043; in assay [11], -0.0277.
Turning to `Cc1c2c(nn1C)CSCc1cc(n(C)n1)CSc1cc(c3ccccc3c1)OCCCc1c(C(=O)O)n(C)c3c-2c(Cl)ccc13` [AZD5991] + Cc1cc2ncnn2cc1Nc1ncc2c(n1)n(C1CCOCC1)c(=O)n2C [AZD7648] (first compound max 1 µM, 7x7, partner max 10 µM), the Bliss excess in [1] is -0.0127; in [2], -0.0141; in the assay with EW-13 (Ewing's Sarcoma), 0.014; with GOTO (Neuroblastoma), -0.02; in assay [3] it was -0.0677; in assay [4], -0.0095. Besides, the Bliss excess in [5] is -0.0598; in assay [6], 0.0025; in assay [7] it was -0.0195; in assay [8] it was -0.0461; in assay [9] it was -0.0472; in the assay on NH-12 (Neuroblastoma), -0.061. Also, the Bliss excess is -0.043 in assay [10] and -0.0119 in assay [11].
For the compound `CC1(C)CCC(CN2CCN(c3ccc(C(=O)NS(=O)(=O)c4ccc(NCC5CCOCC5)c([N+](=O)[O-])c4)c(Oc4cnc5[nH]ccc5c4)c3)CC2)=C(c2ccc(Cl)cc2)C1` [Venetoclax] + C[C@@H](Nc1cc(F)cc(F)c1)c1cc(C(=O)N(C)C)cc2c(=O)cc(N3CCOCC3)oc12 [AZD8186] (first compound max 1 µM, 7x7, partner max 3 µM), the Bliss excess in [1] was -0.0233; in [2], -0.0393; with EW-13 (Ewing's Sarcoma) it was 0.0349; in the assay on GOTO (Neuroblastoma) it was -0.0334; in assay [3], -0.0275; in [4], 0.0081. The Bliss excess in assay [5] was 0.0002; in assay [6], -0.0402; in [7], -0.0281; in assay [8], -0.0295; in assay [9], -0.0045; in the assay on NH-12 (Neuroblastoma) it was 0.124. The Bliss excess in [10] is -0.0296; in assay [11], 0.0263.
On to `NC1(C(=O)N[C@@H](CCO)c2ccc(Cl)cc2)CCN(c2ncnc3[nH]ccc23)CC1` [Capivasertib] + COc1nnc2ccc(N3CCC(c4ccc(OCCN5CCN(C)C(=O)[C@H]5C)cc4)CC3)nn12 [AZD5153] (first compound max 10 µM, 7x7, partner max 1 µM), for which the Bliss excess in assay [1] is 0.0374; in [2] it was 0.0396; in the assay on EW-13 (Ewing's Sarcoma) it was 0.0153; in the assay on GOTO (Neuroblastoma), 0.032; in assay [3], -0.0395; in assay [4] it was -0.0017. The Bliss excess in assay [5] was -0.0329; in assay [6], 0.0272; in [7] it was 0.0618; in [8] it was -0.0054; in assay [9], -0.033; in the assay on NH-12 (Neuroblastoma) it was 0.0177. Also, the Bliss excess was -0.0055 in assay [10] and 0.0248 in assay [11].
Consider `COc1nnc2ccc(N3CCC(c4ccc(OCCN5CCN(C)C(=O)[C@H]5C)cc4)CC3)nn12` [AZD5153] + CC1(C)CCC(CN2CCN(c3ccc(C(=O)NS(=O)(=O)c4ccc(NCC5CCOCC5)c([N+](=O)[O-])c4)c(Oc4cnc5[nH]ccc5c4)c3)CC2)=C(c2ccc(Cl)cc2)C1 [Venetoclax] (first compound max 1 µM, 7x7, partner max 1 µM), for which the Bliss excess in assay [1] is -0.0413; in [2], -0.101; with EW-13 (Ewing's Sarcoma) it was 0.0173; in the assay with GOTO (Neuroblastoma), -0.065; in assay [3], -0.102; in assay [4], -0.0288. The Bliss excess was -0.0384 in [5]; -0.0567 in assay [6]; 0.0061 in [7]; -0.0591 in [8]; -0.11 in assay [9]; -0.0333 in the assay on NH-12 (Neuroblastoma). The values for the Bliss excess in assay [10] and in [11] were -0.013 and -0.0213, respectively.
Take `Cn1cnc2c(F)c(Nc3ccc(Br)cc3Cl)c(C(=O)NOCCO)cc21` [Selumetinib] + C[C@@H]1COCCN1C2=NC(=NC(=C2)C3(CC3)[S@](=N)(=O)C)C4=C5C=CNC5=NC=C4 [AZD6738] (first compound max 10 µM, 7x7, partner max 10 µM): the Bliss excess in assay [1] is -0.0062; in [2] it was 0.0202; in the assay on EW-13 (Ewing's Sarcoma) it was -0.0267; in the assay with GOTO (Neuroblastoma), 0.0043; in [3], 0.048; in [4], 0.0148. For the same compound, the Bliss excess in assay [5] is 0.01; in assay [6] it was -0.0147; in assay [7], 0.0348; in assay [8], 0.0013; in assay [9], 0.0844; with NH-12 (Neuroblastoma) it was 0.0315. Besides, the Bliss excess in [10] is -0.0405; in [11], 0.0368.
Consider `Cc1c2c(nn1C)CSCc1cc(n(C)n1)CSc1cc(c3ccccc3c1)OCCCc1c(C(=O)O)n(C)c3c-2c(Cl)ccc13` [AZD5991] + Cn1cnc2c(F)c(Nc3ccc(Br)cc3Cl)c(C(=O)NOCCO)cc21 [Selumetinib] (first compound max 1 µM, 7x7, partner max 3 µM), for which the Bliss excess in assay [1] was -0.0019; in assay [2], 0.0081; in the assay with EW-13 (Ewing's Sarcoma), 0.0215; in the assay with GOTO (Neuroblastoma), 0.0177; in assay [3] it was 0.032; in assay [4], -0.0147. Moreover, the Bliss excess is -0.0374 in assay [5]; 0.0759 in assay [6]; 0.0402 in assay [7]; -0.0049 in assay [8]; -0.0006 in assay [9]; 0.0026 in the assay on NH-12 (Neuroblastoma). For the same compound, the results for the Bliss excess in [10] and in assay [11] were -0.0588 and 0.0783, respectively.
Consider `C[C@@H]1COCCN1c1cc(C2([S@](C)(=N)=O)CC2)nc(-c2ccnc3[nH]ccc23)n1` [AZD6738] + O=C(c1cc(Cc2n[nH]c(=O)c3ccccc23)ccc1F)N1CCN(C(=O)C2CC2)CC1 [Olaparib] (first compound max 10 µM, 7x7, partner max 10 µM), for which the Bliss excess is -0.0153 in assay [1]; -0.007 in assay [2]; -0.0574 in the assay with EW-13 (Ewing's Sarcoma); -0.0645 with GOTO (Neuroblastoma); 0.0066 in [3]; 0.0032 in assay [4]. Also, the Bliss excess was -0.0307 in assay [5]; -0.032 in [6]; 0.0376 in assay [7]; -0.0202 in [8]; -0.0515 in assay [9]; -0.0308 in the assay with NH-12 (Neuroblastoma). In addition, the Bliss excess amounted to 0.0393 in assay [10] and 0.0103 in [11].

The record behind these values is the supplement of paper PMC11061612.
